Data on 9 compounds can be found in PubChem BioAssay (NCI).

Some test systems named below: SNB-78 CNS; UACC-257 melanoma; DMS 114 small cell lung; UACC-62 melanoma; P388 leukemia; DLD-1 colon; KM20L2 colon; HCC-2998 colon; U251 CNS; MCF7 breast; M19-MEL melanoma; CAKI-1 renal; NCI/ADR-RES ovarian; IGROV1 ovarian; HCT-15 colon; P388/ADR leukemia; A498 renal; M14 melanoma; MDA-MB-435; MDA-MB-231 breast.
Assay in all cases: NCI tumour cell line growth inhibition, 48 h

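48-hour exposure; five concentrations; linearly interpolated endpoints. At the TGI there is no net growth.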 A value given as a limit tells only on which side of the number the result lay.

For `Cc1ccc(N2Cc3c(ccc4ccccc34)OP2(=O)Oc2ccc(Cl)c(C)c2)cc1` (centres undefined), the TGI in the test with SNB-78 CNS, with UACC-257 melanoma, with DMS 114 small cell lung, in the test with UACC-62 melanoma, in the test on P388 leukemia and with DLD-1 colon was > 100 µM each time. Besides, the TGI in the test with KM20L2 colon, in the test with HCC-2998 colon, in the test with U251 CNS, in the test with MCF7 breast, with M19-MEL melanoma and in the test with CAKI-1 renal was > 100 µM in each case. In addition, the TGI with NCI/ADR-RES ovarian, in the test with IGROV1 ovarian, with HCT-15 colon, in the test with P388/ADR leukemia and in the test with A498 renal was > 100 µM each time.
For the compound `CC(C)OP(=O)(OC(C)C)/C(I)=N/Nc1ccc([N+](=O)[O-])cc1`, the TGI in the test with SNB-78 CNS, with UACC-257 melanoma, in the test on DMS 114 small cell lung, with UACC-62 melanoma, with M14 melanoma and in the test on DLD-1 colon was > 100 µM in each case. Further, the TGI in the test on KM20L2 colon, in the test with HCC-2998 colon, in the test on U251 CNS, in the test with M19-MEL melanoma, with CAKI-1 renal and with IGROV1 ovarian was > 100 µM each time. Further, the TGI with HCT-15 colon and in the test with A498 renal was > 100 µM each time.
Take `O=S(=O)(CCBr)CCBr`: the TGI in the test on UACC-257 melanoma was 13.5 µM; in the test with DMS 114 small cell lung it was 6.72 µM; in the test with UACC-62 melanoma it was 11 µM; in the test with P388 leukemia it was 5.67 µM; in the test on DLD-1 colon it was 8.66 µM; with KM20L2 colon, 23.2 µM. Moreover, the TGI came out at 18.1 µM in the test on HCC-2998 colon; 29.2 µM in the test with U251 CNS; 18.3 µM with MCF7 breast; 15 µM in the test with M19-MEL melanoma; 16.4 µM in the test on CAKI-1 renal; 5.02 µM in the test with NCI/ADR-RES ovarian. In addition, the TGI in the test on IGROV1 ovarian was found to be 18.8 µM; with HCT-15 colon, 7.88 µM; in the test on P388/ADR leukemia it was 12.1 µM; in the test with A498 renal it was 14.8 µM.
As to `COc1ccc(-n2cnnc2-c2nsc3ccccc23)cc1`, the TGI in the test on SNB-78 CNS, in the test with UACC-257 melanoma, with DMS 114 small cell lung, in the test on UACC-62 melanoma, in the test on M14 melanoma and in the test with KM20L2 colon was > 100 µM throughout. Also, the TGI with HCC-2998 colon, with U251 CNS, in the test with M19-MEL melanoma, in the test with IGROV1 ovarian and in the test with HCT-15 colon was > 100 µM in each case.
Regarding `CCOP(=O)(OCC)/C(C#N)=C/c1cn(C)cn1`, the TGI with UACC-257 melanoma, with UACC-62 melanoma, in the test on MDA-MB-435, in the test with M14 melanoma, in the test with HCC-2998 colon and in the test with U251 CNS was > 100 µM each time. For the same compound, the TGI with MCF7 breast, in the test on CAKI-1 renal, in the test on NCI/ADR-RES ovarian, in the test with IGROV1 ovarian, in the test with HCT-15 colon and in the test with A498 renal was > 100 µM throughout. The TGI in the test on MDA-MB-231 breast was > 100 µM.
Consider `Nc1nc(SCc2ccc([N+](=O)[O-])cc2)nc2c1ncn2C1OC(COP(=O)(O)O)C(O)C1O` (centres undefined), for which the TGI in the test on SNB-78 CNS, in the test with UACC-257 melanoma, in the test with DMS 114 small cell lung, in the test with UACC-62 melanoma, in the test on M14 melanoma and in the test on DLD-1 colon was > 100 µM throughout. Moreover, the TGI with KM20L2 colon, with HCC-2998 colon, in the test with U251 CNS, with IGROV1 ovarian, in the test with HCT-15 colon and in the test with A498 renal was > 100 µM throughout.
In the case of `Cc1ccc(N=N/C(=N\NC(=O)c2ccc(C)cc2)c2ccc(N(CCC#N)CCC#N)cc2C)cc1`, the TGI is > 100 µM in the test with UACC-257 melanoma; 56.7 µM in the test on UACC-62 melanoma; 65.8 µM in the test on MDA-MB-435; 91.8 µM in the test with M14 melanoma; > 100 µM in the test with HCC-2998 colon; > 100 µM with U251 CNS. For the same compound, the TGI with MCF7 breast was > 100 µM; in the test on CAKI-1 renal, > 100 µM; in the test with NCI/ADR-RES ovarian, > 100 µM; in the test with IGROV1 ovarian, 60.6 µM; in the test with HCT-15 colon, > 100 µM; with A498 renal, > 100 µM. Moreover, the TGI in the test on MDA-MB-231 breast was > 100 µM.
With `CC(NC(=O)C(C)NC(=O)C(N)CCP(C)(=O)O)C(=O)O` (centres undefined), the TGI in the test on SNB-78 CNS was > 100 µM; in the test on UACC-257 melanoma, > 100 µM; in the test on UACC-62 melanoma, > 100 µM; in the test on P388 leukemia it was > 31.6 µM; in the test on DLD-1 colon, > 100 µM; with KM20L2 colon, > 100 µM. Also, the TGI with HCC-2998 colon, with U251 CNS, in the test on MCF7 breast, in the test with M19-MEL melanoma, with CAKI-1 renal and with NCI/ADR-RES ovarian was > 100 µM each time. Moreover, the TGI with IGROV1 ovarian, with HCT-15 colon, with P388/ADR leukemia and with A498 renal was > 100 µM throughout.
On to `CC1=Nc2nc(Cl)cn2C(=O)C1(Cl)Cl`, for which the TGI in the test on UACC-62 melanoma, in the test on MDA-MB-435, in the test on M14 melanoma, in the test on HCC-2998 colon, with U251 CNS and with MCF7 breast was > 10 µM throughout. In addition, the TGI in the test on CAKI-1 renal, in the test on NCI/ADR-RES ovarian, with IGROV1 ovarian, in the test with HCT-15 colon, in the test on A498 renal and in the test with MDA-MB-231 breast was > 10 µM in each case.
